We go through 12 molecules from patent US8039514B2, “Sulfonamide compounds and use thereof” (Asahi Kasei Pharma Corporation, priority 2008, dated 2011).

For data set [1], the system named is PTH concentration in blood. It is filed as in vivo. The conditions noted are these: for death or abnormality of the rat administered with the compounds: 0.1-100 mg/kg intravenous or oral; for PTH concentration in blood after 30 minutes / dose dependence of PTH concentration increase / PTH concentration in blood 5 minutes after the intravenous administration: rat, 0.1-100 mg/kg; for PTH concentration in blood 5 minutes after the intravenous administration: Rat Intact PTH ELISA, versus normal value. The procedure:
Compounds of Exp. 3-49, Exp. 3-57, Exp. 3-93, Exp. 3-95, Exp. 3-102, Exp. 3-106, Exp. 8-5, Exp. 10-1 and Exp. 10-25 were chosen as a test compound. Each of them was either dissolved or suspended in physiological saline or distilled water containing 1-20% DMSO, 5% CremophorEL, 10-40% PEG300, etc. and administered intravenously (tail vein or femoral vein) or orally administered to a 7 week to 10 week old male SD-IGS rat (Nippon Charles-River) with dosage of 0.1-100 mg/kg. After that, blood sample was taken from subclavian vein over the time and serum was separated. Concentration of PTH in blood was measured using Rat Intact PTH ELISA Kit (manufactured by Immutopics) to evaluate an activity of increasing PTH concentration in blood. […] Therefore, the safety of these compounds was confirmed again.
In general terms: In an ELISA, binding on a coated surface is turned into a signal by an enzyme label.

Data set [2] addresses T1, human calcium-sensing receptor (CaSR) (Homo sapiens, UniProt P41180).
T1 construct: expressed in transfected cells
T1 sequence (P41180 20-1078): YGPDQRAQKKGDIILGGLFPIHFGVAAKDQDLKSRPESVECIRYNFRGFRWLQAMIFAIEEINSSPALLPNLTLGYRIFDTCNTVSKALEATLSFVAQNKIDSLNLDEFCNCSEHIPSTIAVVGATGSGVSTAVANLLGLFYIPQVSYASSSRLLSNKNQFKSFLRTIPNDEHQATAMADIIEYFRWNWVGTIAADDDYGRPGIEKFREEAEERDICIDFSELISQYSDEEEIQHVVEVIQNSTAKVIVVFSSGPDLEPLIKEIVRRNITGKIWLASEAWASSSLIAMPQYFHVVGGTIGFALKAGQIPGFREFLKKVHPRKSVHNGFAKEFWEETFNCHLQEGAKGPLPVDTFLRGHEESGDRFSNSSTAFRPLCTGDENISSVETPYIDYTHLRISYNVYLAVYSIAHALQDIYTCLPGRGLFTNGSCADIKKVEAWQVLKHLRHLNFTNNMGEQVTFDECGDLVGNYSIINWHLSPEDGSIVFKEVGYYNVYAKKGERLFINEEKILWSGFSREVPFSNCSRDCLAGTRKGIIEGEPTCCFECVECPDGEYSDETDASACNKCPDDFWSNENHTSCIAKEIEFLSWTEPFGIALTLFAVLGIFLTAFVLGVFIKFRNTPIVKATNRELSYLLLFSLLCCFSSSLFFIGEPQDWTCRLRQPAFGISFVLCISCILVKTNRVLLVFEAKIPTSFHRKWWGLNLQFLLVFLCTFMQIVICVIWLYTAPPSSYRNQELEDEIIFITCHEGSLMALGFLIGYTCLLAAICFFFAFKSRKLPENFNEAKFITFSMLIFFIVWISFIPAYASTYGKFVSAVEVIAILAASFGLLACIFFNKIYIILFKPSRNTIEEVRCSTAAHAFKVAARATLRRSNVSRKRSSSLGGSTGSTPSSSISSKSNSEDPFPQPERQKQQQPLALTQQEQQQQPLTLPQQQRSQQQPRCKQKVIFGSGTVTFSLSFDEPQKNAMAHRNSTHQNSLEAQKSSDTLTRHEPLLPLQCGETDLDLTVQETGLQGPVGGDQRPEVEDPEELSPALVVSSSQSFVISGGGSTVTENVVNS
As to the kind of experiment: intracellular Ca assay, CaSR antagonist activity in HEK293/hCaSR cells. Format: cell-based. The note with it: Fura2-AM, inhibition of response to calcium chloride ligand solution, read-out: IC50 values according to the intracellular Ca assay (CaSR antagonist activity). The essentials: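 HEK293/hCaSR cells were loaded with Fura2-AM and pre-incubated with compound for 160 s at 37° C in HEPES buffer (pH 7.4, 0.8 mM CaCl2), then challenged with calcium ligand solution. Read-out was the peak 340/380 nm fluorescence ratio; inhibition is relative to no-compound (0%) and no-calcium-ligand (100%) controls.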

For orientation: IC50 means the concentration that gives 50% inhibition.

`CN(C[C@H](O)CNC(C)(C)CC1Cc2ccccc2C1)S(=O)(=O)c1cc(CCC(=O)O)cc(C(F)(F)F)c1` [Exp. 10-1, (R)-3-(3-(N-(3-(1-(2,3-dihydro-1H-inden-2-yl)-2-methylpropan-2-ylamino)-2-hydroxypropyl)-N-methylsulfamoyl)-5-(trifluoromethyl)phenyl)propionic acid]: in data set [1], the “death or abnormality of the rat administered with the compounds” value (“death or abnormality” for short) is given as “no death or abnormality was found”, the “PTH concentration in blood after 30 minutes” value is “returned to a normal value”, the “dose dependence of PTH concentration increase” value is “dependent on the administration amount of the compound” and the “PTH concentration in blood 5 minutes after the intravenous administration” value (shortened to “PTH concentration in blood 5 minutes”) is recorded as “increased at least twice the normal value”.

Take `CN(C[C@H](O)CNC(C)(C)Cc1ccc(Cl)c(F)c1)S(=O)(=O)c1cc(-c2ccc(CCC(=O)O)cc2)cc(C(F)(F)F)c1` [Exp. 3-95, (R)-3-(3′-(N-(3-(1-(4-chloro-3-fluorophenyl)-2-methylpropan-2-ylamino)-2-hydroxypropyl)-N-methylsulfamoyl)-5′-(trifluoromethyl)biphenyl-4-yl)propionic acid]: in data set [1], the “death or abnormality” value was “no death or abnormality was found”, the “PTH concentration in blood after 30 minutes” value was “returned to a normal value”, the “dose dependence of PTH concentration increase” value is reported as “dependent on the administration amount of the compound” and the “PTH concentration in blood 5 minutes” value is “increased at least twice the normal value”.

As to `CN(C[C@H](O)CNC(C)(C)CCCc1ccccc1)S(=O)(=O)c1cc(CCC(=O)O)cc(C(F)(F)F)c1` [Exp. 8-5, (R)-3-(3-(N-(2-hydroxy-3-(2-methyl-5-phenylpentan-2-ylamino)propyl)-N-methylsulfamoyl)-5-(trifluoromethyl)phenyl)propionic acid], in data set [1], the “death or abnormality” value is recorded as “no death or abnormality was found”, the “PTH concentration in blood after 30 minutes” value was “returned to a normal value”, the “dose dependence of PTH concentration increase” value is listed as “dependent on the administration amount of the compound” and the “PTH concentration in blood 5 minutes” value was “increased at least twice the normal value”. Besides, the IC50 in data set [2] is no more than 300 nM.

Take `CN(C[C@H](O)CNC(C)(C)CC1Cc2ccccc2C1)S(=O)(=O)c1cc(-c2ccc(CCC(=O)O)cc2)cc(C(F)(F)F)c1` [Exp. 3-93, (R)-3-(3′-(N-(3-(1-(2,3-dihydro-1H-inden-2-yl)-2-methylpropan-2-ylamino)-2-hydroxypropyl)-N-methylsulfamoyl)-5′-(trifluoromethyl)biphenyl-4-yl)propionic acid]: in data set [1], the “death or abnormality” value is “no death or abnormality was found”, the “PTH concentration in blood after 30 minutes” value is reported as “returned to a normal value”, the “dose dependence of PTH concentration increase” value was “dependent on the administration amount of the compound” and the “PTH concentration in blood 5 minutes” value was “increased at least twice the normal value”. Further, the IC50 in data set [2] is no more than 300 nM.

Consider `CN(C[C@H](O)CNC(C)(C)CC1Cc2ccccc2C1)S(=O)(=O)c1ccc(-c2ccc(CCC(=O)O)cc2)c(Cl)c1` [Exp. 3-106, (R)-3-(2′-chloro-4′-(N-(3-(1-(2,3-dihydro-1H-inden-2-yl)-2-methylpropan-2-ylamino)-2-hydroxypropyl)-N-methylsulfamoyl)biphenyl-4-yl)propionic acid], for which, in data set [1], the “death or abnormality” value is “no death or abnormality was found”, the “PTH concentration in blood after 30 minutes” value was “returned to a normal value”, the “dose dependence of PTH concentration increase” value is “dependent on the administration amount of the compound” and the “PTH concentration in blood 5 minutes” value is “increased at least twice the normal value”. For the same molecule, in data set [2], the IC50 was no more than 300 nM.

As for `CN(C[C@H](O)CNC(C)(C)CC1Cc2ccccc2C1)S(=O)(=O)c1cc(CCCC(=O)O)cc(C(F)(F)F)c1` [Exp. 10-25, (R)-4-(3-(N-(3-(1-(2,3-dihydro-1H-inden-2-yl)-2-methylpropan-2-ylamino)-2-hydroxypropyl)-N-methylsulfamoyl)-5-(trifluoromethyl)phenyl)butanoic acid], in data set [1], the “death or abnormality” value was “no death or abnormality was found”, the “PTH concentration in blood after 30 minutes” value is “returned to a normal value”, the “dose dependence of PTH concentration increase” value is on record as “dependent on the administration amount of the compound” and the “PTH concentration in blood 5 minutes” value is given as “increased at least twice the normal value”.

As to `CN(C[C@H](O)CNC(C)(C)CC1Cc2ccccc2C1)S(=O)(=O)c1ccc(-c2ccc(F)c(CCC(=O)O)c2)cc1C(F)(F)F` [Exp. 5-62, (R)-3-(4′-(N-(3-(1-(2,3-dihydro-1H-inden-2-yl)-2-methylpropan-2-ylamino)-2-hydroxypropyl)-N-methylsulfamoyl)-4-fluoro-3′-(trifluoromethyl)biphenyl-3-yl)propionic acid], in data set [2], the 50% inhibitory concentration (IC50) is no more than 300 nM.

On to `CN(C[C@H](O)CNC(C)(C)CCCc1ccccc1)S(=O)(=O)c1cc(-c2cccc(CCC(=O)O)c2)cc(C(F)(F)F)c1` [Exp. 9-55, (R)-3-(3′-(N-(2-hydroxy-3-(2-methyl-5-phenylpentan-2-ylamino)propyl)-N-methylsulfamoyl)-5′-(trifluoromethyl)biphenyl-3-yl)propionic acid], for which, in data set [2], the concentration for half-maximal inhibition (IC50) is no more than 300 nM.

As to `CCc1cc(-c2ccc(CCC(=O)O)cc2)ccc1S(=O)(=O)N(C)C[C@H](O)CNC(C)(C)CC1Cc2ccccc2C1` [Exp. 3-102, (R)-3-(4′-(N-(3-(1-(2,3-dihydro-1H-inden-2-yl)-2-methylpropan-2-ylamino)-2-hydroxypropyl)-N-methylsulfamoyl)-3′-ethylbiphenyl-4-yl)propionic acid], in data set [1], the “death or abnormality” value is on record as “no death or abnormality was found”, the “PTH concentration in blood after 30 minutes” value was “returned to a normal value”, the “dose dependence of PTH concentration increase” value is “dependent on the administration amount of the compound” and the “PTH concentration in blood 5 minutes” value was “increased at least twice the normal value”.

Turning to `CC(C)(CC1Cc2ccccc2C1)NC[C@@H](O)CNS(=O)(=O)c1cccc(-c2cccc(C(=O)O)c2)c1` [Exp. 14-2, (R)-3′-(N-(3-(1-(2,3-dihydro-1H-inden-2-yl)-2-methylpropan-2-ylamino)-2-hydroxypropyl)sulfamoyl)biphenyl-3-carboxylic acid], the IC50 in data set [2] is no more than 300 nM.

`CCc1cc(-c2c(F)cccc2CCC(=O)O)ccc1S(=O)(=O)N(C)C[C@H](O)CNC(C)(C)CCCc1ccccc1` [Exp. 5-74, (R)-3-(3′-ethyl-6-fluoro-4′-(N-(2-hydroxy-3-(2-methyl-5-phenylpentan-2-ylamino)propyl)-N-methylsulfamoyl)biphenyl-2-yl)propionic acid]: the half-maximal inhibitory concentration (IC50) in data set [2] was no more than 300 nM.

Regarding `CN(C[C@H](O)CNC(C)(C)CCCc1ccccc1)S(=O)(=O)c1cc(-c2ccc(CCC(=O)O)cc2)cc(C(F)(F)F)c1` [Exp. 9-56, (R)-3-(3′-(N-(2-hydroxy-3-(2-methyl-5-phenylpentan-2-ylamino)propyl)-N-methylsulfamoyl)-5′-(trifluoromethyl)biphenyl-4-yl)propionic acid], in data set [2], the IC50 is no more than 300 nM.
